50 compounds from patent US20180282323A1, “Mesoionic imidazole derivatives as insecticides” (BAYER CROPSCIENCE AKTIENGESELLSCHAFT, priority 2015, published 2018) can be followed below.

In one data set the test system is Myzus persicae. Put plainly: Myzus persicae oral test. In kind it is in vivo. Conditions: application rate 20 ppm, oral uptake through parafilm, after 5 days. The procedure: Myzus persicae—Oral Test Solvent: 100 parts by weight of acetone
To produce an appropriate active ingredient formulation, 1 part by weight of active ingredient is dissolved with the stated parts by weight of solvent and made up with water until the desired concentration is attained.
50 μl of the active ingredient formulation are transferred into microtitre plates and made up to a final volume of 200 μl with 150 μl of IPL41 insect medium (33%+15% sugar). Subsequently, the plates are sealed with parafilm, which a mixed population of green peach aphids (Myzus persicae) within a second microtitre plate is able to puncture and imbibe the solution through it.
After 5 days, the efficacy in % is determined. 100% means that all the aphids have been killed; 0% means that no aphids have been killed.

Data set [1] is described as follows: log P by HPLC on reversed-phase column (EEC directive 79/831 Annex V.A8). In kind it is physicochemical. Conditions: for log p: HPLC on reversed-phase column (footnote a); for log p a): HPLC on reversed-phase column. The essentials:
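Reversed-phase (C18) HPLC at 43° C, following EEC directive 79/831 Annex V.A8.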

Consider `CCOCC(=O)c1c([O-])n(Cc2ccc(Cl)nc2)c2c(C)ccc[n+]12` [Example I-1-182], for which the efficacy in the data set with Myzus persicae is reported as 100%. This compound also displayed a log p in data set [1] of 1.6.

`CCOCC(=O)c1c([O-])n(C(C)c2ccc(Cl)nc2)c2cccc[n+]12` (stereo not shown) [Example I-1-186] gave an efficacy in the data set on Myzus persicae of 100%. In data set [1], this compound registered a log p of 1.58.

In turn, `CCOCC(=O)c1c([O-])n(Cc2ccc(C(F)(F)F)nc2)c2cccc[n+]12` [Example I-1-188] gave an efficacy in the data set on Myzus persicae of 100%. In data set [1], the log p came out at 1.72.

Turning to `Cc1cccc2n(Cc3cnc(Cl)s3)c([O-])c(C(=O)NC3CC3)[n+]12` [Example I-1-190], in the data set with Myzus persicae, the efficacy is recorded as 100%. This compound came in with a log p in data set [1] of 1.16.

Take `Cc1ccc[n+]2c(C(=O)NCC(C)C)c([O-])n(Cc3ccc(Cl)nc3)c12` [Example I-1-191]: in the data set with Myzus persicae, the efficacy amounted to 90%. In data set [1], the log p was found to be 2.33.

With `CCOCC(=O)c1c([O-])n(Cc2cnc(Cl)c(Cl)c2)c2cccc[n+]12` [Example I-1-192], in the data set with Myzus persicae, the efficacy turned out to be 100%. In data set [1], this compound displayed a log p of 1.93.

In the case of `O=C(NC1CC1)c1c([O-])n(Cc2cncc(Cl)c2)c2cccc[n+]12` [Example I-1-195], the efficacy in the data set with Myzus persicae turned out to be 90%. Besides, the log p in data set [1] came to 1.52.

In turn, `COC(=O)c1c([O-])n(C(C)c2ccc(Cl)nc2)c2cccc[n+]12` (stereo not shown) [Example I-1-198] came in with an efficacy in the data set on Myzus persicae of 100%. For the same compound, the “log p a)” value in data set [1] is 1.32.

Compound `COC(=O)c1c([O-])n(Cc2cnc(Cl)c(Cl)c2)c2cccc[n+]12` [Example I-1-199] returned an efficacy in the data set on Myzus persicae of 100%. Moreover, in data set [1], the “log p a)” value was found to be 1.66.

For `O=C(NC1CC1)c1c([O-])n(Cc2ccc(C(F)(F)F)nc2)c2cccc[n+]12` [Example I-1-200], the efficacy with Myzus persicae is recorded as 90%. Further, the “log p a)” value in data set [1] amounted to 1.87.

Take `O=C(NC1CC1)c1c([O-])n(Cc2cnc(Cl)c(Cl)c2)c2cccc[n+]12` [Example I-1-201]: the efficacy with Myzus persicae worked out at 100%. For the same compound, the “log p a)” value in data set [1] worked out at 2.08.

Consider `COCC(=O)c1c([O-])n(Cc2ccc(Cl)nc2)c2c(F)ccc[n+]12` [Example I-1-205], for which, in the data set with Myzus persicae, the efficacy came to 100%. Further, the “log p a)” value in data set [1] was found to be 1.44.

Compound `COC(=O)c1c([O-])n(Cc2cnc(Cl)s2)c2c(C)ccc[n+]12` [Example I-1-206] came in with an efficacy in the data set on Myzus persicae of 100%. Further, the “log p a)” value in data set [1] worked out at 1.46.

In the data set with Myzus persicae, `O=C(CCl)c1c([O-])n(Cc2ccc(F)nc2)c2cccc[n+]12` [Example I-1-207] had an efficacy of 100%. Moreover, the “log p a)” value in data set [1] is listed as 1.38.

`COc1ccc(NC(=O)c2c([O-])n(Cc3cnc(Cl)s3)c3c(C)ccc[n+]23)cc1` [Example I-1-208] came in with an efficacy with Myzus persicae of 100%. The “log p a)” value in data set [1] was 2.91.

For the compound `O=C(CCl)c1c([O-])n(Cc2cnc(Cl)s2)c2cccc[n+]12` [Example I-1-209], in the data set with Myzus persicae, the efficacy is given as 100%. Moreover, the “log p a)” value in data set [1] turned out to be 1.24.

In the data set with Myzus persicae, `Cc1ccc[n+]2c(C(=O)Nc3ccccc3)c([O-])n(Cc3cnc(Cl)s3)c12` [Example I-1-211] showed an efficacy of 90%. Also, the “log p a)” value in data set [1] is listed as 3.1.

`Cc1ccc[n+]2c(C(=O)Nc3c(F)cccc3F)c([O-])n(Cc3cnc(Cl)s3)c12` [Example I-1-212] returned an efficacy in the data set on Myzus persicae of 100%. For the same compound, the “log p a)” value in data set [1] was 2.73.

`Cc1ccc[n+]2c(C(=O)NC(C)(C)C)c([O-])n(Cc3cnc(Cl)s3)c12` [Example I-1-213]: the efficacy in the data set on Myzus persicae is on record as 100%. In addition, in data set [1], the “log p a)” value turned out to be 2.69.

As for `COC(=O)c1c([O-])n(Cc2ccc(F)nc2)c2c(C)ccc[n+]12` [Example I-1-214], in the data set with Myzus persicae, the efficacy worked out at 100%. Also, the “log p a)” value in data set [1] is given as 1.21.

Compound `COC(=O)c1c([O-])n(Cc2cnc(C)cn2)c2cccc[n+]12` [Example I-1-215] showed an efficacy with Myzus persicae of 100%. The “log p a)” value in data set [1] was found to be 0.80.

Regarding `Cc1cnc(Cn2c([O-])c(C(=O)Nc3ccccc3)[n+]3ccccc23)cn1` [Example I-1-218], the efficacy in the data set on Myzus persicae came out at 100%. Also, the “log p a)” value in data set [1] was determined as 2.05.

In the case of `Cc1ccc[n+]2c(C(=O)Nc3ccc(F)cc3)c([O-])n(Cc3ccc(Cl)nc3)c12` [Example I-1-219], the efficacy in the data set on Myzus persicae amounted to 100%. In addition, the “log p a)” value in data set [1] was found to be 2.9.

With `Cc1ccc[n+]2c(C(=O)NC3CC3)c([O-])n(Cc3ccc(F)nc3)c12` [Example I-1-222], the efficacy in the data set on Myzus persicae is listed as 100%. In addition, the “log p a)” value in data set [1] came out at 1.58.

`Cc1ncc(Cn2c([O-])c(C(=O)NC3CC3)[n+]3cccc(C)c23)s1` [Example I-1-223] yielded an efficacy in the data set on Myzus persicae of 100%. For the same compound, the “log p a)” value in data set [1] came out at 1.45.

As for `CCNC(=O)c1c([O-])n(C(C)c2ccc(Cl)nc2)c2cccc[n+]12` (stereo not shown) [Example I-1-228], in the data set on Myzus persicae, the efficacy is given as 100%. In data set [1], the “log p a)” value is listed as 1.72.

As for `CC(c1ccc(Cl)nc1)n1c([O-])c(C(=O)Nc2ccccc2)[n+]2ccccc12` (stereo not shown) [Example I-1-229], the efficacy in the data set with Myzus persicae is 100%. The “log p a)” value in data set [1] worked out at 2.8.

In turn, `O=C(Nc1ccccc1Cl)c1c([O-])n(Cc2cnc(Cl)s2)c2cccc[n+]12` [Example I-1-234] returned an efficacy in the data set with Myzus persicae of 100%. In addition, the “log p a)” value in data set [1] is reported as 3.29.

Compound `COc1ccc(NC(=O)c2c([O-])n(Cc3cnc(Cl)s3)c3cccc[n+]23)cc1` [Example I-1-236] displayed an efficacy in the data set on Myzus persicae of 100%. For the same compound, in data set [1], the “log p a)” value is recorded as 2.62.

With `COc1ccc(NC(=O)c2c([O-])n(C(C)c3ccc(Cl)nc3)c3cccc[n+]23)cc1` (stereo not shown) [Example I-1-237], in the data set with Myzus persicae, the efficacy turned out to be 90%. Besides, the “log p a)” value in data set [1] was 2.66.

`CC(c1ccc(Cl)nc1)n1c([O-])c(C(=O)NCC(F)(F)F)[n+]2ccccc12` (stereo not shown) [Example I-1-241]: the efficacy with Myzus persicae is on record as 100%. For the same compound, in data set [1], the “log p a)” value was determined as 2.2.

With `CCNC(=O)c1c([O-])n(Cc2cnc(C)cn2)c2cccc[n+]12` [Example I-1-244], the efficacy with Myzus persicae amounted to 90%. Further, the “log p a)” value in data set [1] is reported as 1.07.

`CNC(=O)c1c([O-])n(Cc2cnc(C)cn2)c2cccc[n+]12` [Example I-1-245]: in the data set on Myzus persicae, the efficacy was determined as 90%. Besides, in data set [1], the “log p a)” value came out at 0.76.

In the data set with Myzus persicae, `CCCNC(=O)c1c([O-])n(C(C)c2ccc(Cl)nc2)c2cccc[n+]12` (stereo not shown) [Example I-1-249] displayed an efficacy of 100%. The “log p a)” value in data set [1] is listed as 2.02.

For `CC(c1ccc(Cl)nc1)n1c([O-])c(C(=O)NCC2CC2)[n+]2ccccc12` (stereo not shown) [Example I-1-250], in the data set with Myzus persicae, the efficacy was found to be 100%. In data set [1], the “log p a)” value is 2.12.

Consider `Cc1ccc[n+]2c(C(=O)Cn3cccn3)c([O-])n(Cc3cnc(Cl)s3)c12` [Example I-1-251], for which the efficacy in the data set with Myzus persicae was determined as 100%. For the same compound, in data set [1], the “log p a)” value was found to be 1.69.

In the case of `Cc1ccc[n+]2c(C(=O)Nc3ncccn3)c([O-])n(Cc3ccc(Cl)nc3)c12` [Example I-1-265], the efficacy with Myzus persicae was 90%. The “log p a)” value in data set [1] is on record as 1.51.

For the compound `Cc1cnc(Cn2c([O-])c(C(=O)Nc3c(F)cccc3F)[n+]3ccccc23)cn1` [Example I-1-269], the efficacy with Myzus persicae came to 100%. In addition, the “log p a)” value in data set [1] is 1.75.

Regarding `CC(c1ccc(Cl)nc1)n1c([O-])c(C(=O)NC2(C#N)CC2)[n+]2ccccc12` (stereo not shown) [Example I-1-271], the efficacy in the data set on Myzus persicae is 100%. Also, the “log p a)” value in data set [1] was determined as 1.69.

In the data set on Myzus persicae, `CC(c1ccc(Cl)nc1)n1c([O-])c(C(=O)Nc2c(F)cccc2F)[n+]2ccccc12` (stereo not shown) [Example I-1-272] registered an efficacy of 100%. Moreover, the “log p a)” value in data set [1] was found to be 2.46.

Compound `CCNC(=O)c1c([O-])n(Cc2cnc(Cl)cn2)c2cccc[n+]12` [Example I-1-278] came in with an efficacy in the data set on Myzus persicae of 100%. Further, the “log p a)” value in data set [1] came to 1.51.

Regarding `O=C(Nc1ccccc1F)c1c([O-])n(Cc2cnc(Cl)s2)c2cccc[n+]12` [Example I-1-286], in the data set on Myzus persicae, the efficacy amounted to 100%. Moreover, in data set [1], the “log p a)” value is listed as 2.95.

Take `CC(c1cnc(Cl)s1)n1c([O-])c(C(=O)NC2(C#N)CC2)[n+]2ccccc12` (stereo not shown) [Example I-1-289]: the efficacy in the data set with Myzus persicae stood at 100%. Besides, the “log p a)” value in data set [1] was 1.86.

For the compound `Cc1ccc[n+]2c(C(=O)COC3CCCCC3)c([O-])n(Cc3cnc(Cl)s3)c12` [Example I-1-294], in the data set on Myzus persicae, the efficacy was 90%. Also, the “log p a)” value in data set [1] amounted to 2.77.

`COc1cccc(NC(=O)c2c([O-])n(Cc3ccc(Cl)nc3)c3cccc[n+]23)c1` [Example I-1-299]: in the data set with Myzus persicae, the efficacy was 100%. Further, in data set [1], the “log p a)” value worked out at 2.55.

Compound `Cc1ccc[n+]2c(C(=O)COC3CCCC3)c([O-])n(Cc3cnc(Cl)s3)c12` [Example I-1-302] had an efficacy with Myzus persicae of 100%. For the same compound, the “log p a)” value in data set [1] came to 2.45.

`O=C(Nc1cc(F)ccc1F)c1c([O-])n(Cc2cnc(Cl)s2)c2cccc[n+]12` [Example I-1-306]: the efficacy in the data set with Myzus persicae is reported as 100%. Moreover, the “log p a)” value in data set [1] was found to be 3.23.

`O=C(NCC(F)(F)F)c1c([O-])n(Cc2ccc(Cl)nc2)c2cccc[n+]12` [Example I-1-312] displayed an efficacy in the data set with Myzus persicae of 100%. The “log p a)” value in data set [1] worked out at 1.98.

The compound `O=C(Nc1ncccc1F)c1c([O-])n(Cc2ccc(Cl)nc2)c2cccc[n+]12` [Example I-1-317] came in with an efficacy with Myzus persicae of 100%. In addition, the “log p a)” value in data set [1] stood at 1.49.

In turn, `COc1ccccc1NC(=O)c1c([O-])n(Cc2ccc(Cl)nc2)c2cccc[n+]12` [Example I-1-326] gave an efficacy with Myzus persicae of 100%. For the same compound, the “log p a)” value in data set [1] is reported as 2.55.
